Data as given in article PMC9293466 (Chembiochem, 2021).

Target: T1, Gc4EO (Gulosibacter chungangensis, UniProt A0A7J5BGR1)
T1 sequence (A0A7J5BGR1 1-529): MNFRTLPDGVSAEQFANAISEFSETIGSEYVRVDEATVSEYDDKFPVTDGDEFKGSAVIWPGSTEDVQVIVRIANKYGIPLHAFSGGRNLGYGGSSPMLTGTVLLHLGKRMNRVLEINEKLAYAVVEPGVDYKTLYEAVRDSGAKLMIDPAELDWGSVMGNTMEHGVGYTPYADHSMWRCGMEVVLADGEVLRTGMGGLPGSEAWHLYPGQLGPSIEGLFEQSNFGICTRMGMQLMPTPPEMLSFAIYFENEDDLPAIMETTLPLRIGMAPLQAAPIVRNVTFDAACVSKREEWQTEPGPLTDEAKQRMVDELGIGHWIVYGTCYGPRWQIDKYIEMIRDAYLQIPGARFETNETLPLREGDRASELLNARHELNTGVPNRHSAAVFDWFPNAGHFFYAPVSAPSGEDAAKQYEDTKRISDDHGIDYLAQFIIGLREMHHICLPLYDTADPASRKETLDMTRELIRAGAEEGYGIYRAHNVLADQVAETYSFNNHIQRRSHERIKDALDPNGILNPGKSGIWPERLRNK
Assay: X-ray crystal structure, […] Å
Format: binding
Settings: covalent; C8M of FAD to His395; pH 8.0 crystals

For `Cc1cc2nc3c(=O)[nH]c(=O)nc-3n(C[C@H](O)[C@H](O)[C@H](O)COP(=O)(O)OP(=O)(O)OC[C@H]3O[C@@H](n4cnc5c(N)ncnc54)[C@H](O)[C@@H]3O)c2cc1C` [FAD], the “X-ray crystal structure, 1.7 Å” value was “showing the covalent bond between the C8 M of FAD and His395”.
